What is called DC50 is the concentration giving 50% degradation. A high value points to a less potent degrader.

Starred links: 1 amine or outer side, 2 acyl side, 3 side chain; linkers in the order of their positions; H or OH if unused. Positions of bridges follow the written chain, without caps; N, C: chain ends. Non-standard residues stand in square brackets, D forms with d. Residues, ends and D or L forms follow the SMILES beside them. *: point of attachment. X14 = Cn1cc2c3c(c[nH]c3c1=O)CN(c1ncc(F)cc1F)c1cc(C(=O)*)c(CS(C)(=O)=O)cc1-2; X11 = CC(=O)N1c2ccc(-c3ccc(C(=O)*)cc3)cc2[C@H](Nc2ccc(Cl)cc2)C[C@@H]1C; JQ1acid = Cc1sc2c(c1C)C(c1ccc(Cl)cc1)=N[C@@H](CC(=O)*)c1nnc(C)n1-2; dPhg(4-(4-Me-thiazol-5-yl)) = Cc1ncsc1-c1ccc([C@@H](N)C(=O)O)cc1; Phg(4-(4-Me-thiazol-5-yl)) = Cc1ncsc1-c1ccc([C@H](N)C(=O)O)cc1; dDap(Me) = CN(C[C@@H](N[*:1])C(=O)[*:2])[*:3]; Bip = N[C@@H](Cc1ccc(-c2ccccc2)cc1)C(=O)O; X5 = O=C([C@@H](Cc1ccc(Br)s1)N[*:1])[*:2]; dBip = N[C@H](Cc1ccc(-c2ccccc2)cc1)C(=O)O; X7 = O=C([C@H](Cc1ccc(Br)s1)N[*:1])[*:2]; X4 = O=C([C@H]1CN([*:3])CCN1[*:1])[*:2]; cisHyp = O=C(O)[C@@H]1C[C@H](O)CN1; Hyp = O=C(O)[C@@H]1C[C@@H](O)CN1; d(β3hK) = NCCCC[C@@H](N)CC(=O)O; Tle = CC(C)(C)[C@H](N)C(=O)O; dDap = NC[C@@H](N)C(=O)O; PEG1 = NCCOCCC(=O)O; AEA = NCCOCC(=O)O

This test addresses T1, BRD4 (Homo sapiens, UniProt O60885).
T1 construct: Mean 488 intensity of BRD4 quantitated in nuclear region; endogenous in cells; host or cells: EoL-1 eosinophilic leukemia cells
In words: BRD4 degradation assay in EOL1 cells (immunofluorescence imaging). Format: cell-based. Conditions: EoL-1 eosinophilic leukemia cells, 4 hours treatment, nuclear BRD4 immunofluorescence. The procedure: BRD4 Degradation Assay in EOL1 Cells
EoL-1 eosinophilic leukemia cells were seeded on day 1 at a density of 45,000 cells per well in Corning PureCoat Amine Microplates, (Corning #354719) in 45 μL/well of assay media (RPMI, 10% FBS, containing L-glutamine). After cells attached to cell plate, compounds were serially diluted ⅓ in dimethylsulfoxide (DMSO) to create 20-point dilutions across a 384 well v-bottom polypropylene microplate (Greiner #781091). 2 μL of each sample from the serial dilution was transferred to 98 μL of assay media as an intermediate dilution. 5 μL of each well of the intermediate dilution was added to 45 μL of cell plate. Columns 1, 2, 23 and 24 were treated with only 0.2% final concentration of DMSO for data normalization as “neutral controls”. After compound treatment, cell plates were stored in a 37° C. incubator for 4 hours. After 4 hours cells were fixed in 3.7% w/v final concentration of paraformaldehyde by addition of 15 μL of 16% w/v paraformaldehyde (Electron Microscopy Sciences #15710-S) directly to the 50 μL media and compound in the cell plate. Cell plate was incubated at RT for 20 minutes. Well contents were aspirated and washed with 100 μL/well PBS 3 times. 50 ul/well of phosphate Buffered Saline (PBS) (pH 7.5) containing 0.5% w/v bovine serum albumen, 0.5% w/v Triton X-100 (Block/Permeabilization Buffer) was added to each well. Samples were incubated for 20 minutes. Well contents were aspirated and washed 3 times with 100 μL/well of PBS. PBS was aspirated from the well and 50 μL per well of EoL-1 Block Buffer (PBS containing 10% Normal Goat Serum (AbCam #ab7481)) was added to each well. Plates were incubated at room temperature for 30 minutes. Block buffer was decanted from the wells. Immunofluorescence staining of BRD4 was carried out by diluting mAB Anti-BRD4 [EPR5150] antibody (Abcam 128874) 1:500 into Antibody Dilution Buffer (PBS, 2% Normal Goat Serum). 25 μL per well of BRD4 antibody diluted in buffer was added and incubated overnight at 4° C.
On day-2 samples were washed 3 times with 100 μL/well of PBS. 25 μL/well of secondary antibody solution (Goat Anti-Rabbit IgG, DyLight 488 Conjugated Highly Cross-adsorbed Thermo Fisher #35553) and Hoechst 33342 1 μg/ml diluted in Antibody Dilution Buffer) were dispensed into each well. Hoechst 33342 only was added to bottom 3 columns for data normalization as “inhibitor controls”. Samples were incubated for 2 hours at room temperature. Samples were washed 3 times with 100 μL PBS. Quantitative fluorescence imaging of BRD4 was carried out using an Opera Phenix High-Content Screening System. Fluorescent images of the samples were captured using 488 nm and 405 nm channels. Hoechst channel was used to identify nuclear region. Mean 488 intensity of BRD4 quantitated in nuclear region. Data analysis was carried out using Genedata Screener, with DMSO and no primary antibody control treated samples being used to define the 0% and 100% changes in BRD4. The dose-response log(inhibitor) vs. response used to define the inflexion point of curve (DC50) and the plateau of the maximal effect.
The individual topological polar surface area (TPSA) and cLogP values were calculated using Chemdraw v. 15.1 (PerkinElmer). Half life of the ternary VHL/BD1 and VHL/BD2 complexes, DC50 of BRD4 in EOL1 cells, topological polar surface area of a molecule (TPSA) and c log P (lipophilicity) for compounds described herein are provided in Table 3.
Compound `Cc1sc2c(c1C)C(c1ccc(Cl)cc1)=N[C@@H](CC(=O)NC[C@H]1NC(=O)CNC(=O)[C@@H](Cc3ccc(-c4ccccc4)cc3)NC(=O)[C@@H]3C[C@@H](O)CN3C(=O)[C@H](C(C)(C)C)NC(=O)CSC[C@H](C(N)=O)NC1=O)c1nnc(C)n1-2` [Compound 18] ({CH2CO}-[Tle][Hyp][dBip]G[dDap](JQ1acid)[dC]-NH2; thioether N-6) displayed a DC50 below 1 µM.
`Cc1sc2c(c1C)C(c1ccc(Cl)cc1)=N[C@@H](CC(=O)NC[C@H]1NC(=O)CNC(=O)[C@H](Cc3ccc(-c4ccccc4)cc3)NC(=O)[C@@H]3C[C@@H](O)CN3C(=O)[C@H](C(C)(C)C)NC(=O)CSC[C@H](C(N)=O)NC1=O)c1nnc(C)n1-2` [Compound 19] ({CH2CO}-[Tle][Hyp][Bip]G[dDap](JQ1acid)[dC]-NH2; thioether N-6) gave a DC50 below 20 µM.
The result for `Cc1sc2c(c1C)C(c1ccc(Cl)cc1)=N[C@@H](CC(=O)NC[C@H]1NC(=O)CNC(=O)[C@H](Cc3ccc(Br)s3)NC(=O)[C@@H]3C[C@@H](O)CN3C(=O)[C@H](C(C)(C)C)NC(=O)CSC[C@H](C(N)=O)NC1=O)c1nnc(C)n1-2` [Compound 20] ({CH2CO}-[Tle][Hyp][X7]G[dDap](JQ1acid)[dC]-NH2; thioether N-6) reads below 1 µM; that for `CC(=O)N1c2ccc(-c3ccc(C(=O)NC[C@H]4NC(=O)CNC(=O)[C@@H](c5ccc(-c6scnc6C)cc5)NC(=O)[C@@H]5C[C@@H](O)CN5C(=O)[C@H](C(C)(C)C)NC(=O)CSC[C@H](C(N)=O)NC4=O)cc3)cc2[C@H](Nc2ccc(Cl)cc2)C[C@@H]1C` [Compound 21] ({CH2CO}-[Tle][Hyp][dPhg(4-(4-Me-thiazol-5-yl))]G[dDap](X11)[dC]-NH2; thioether N-6), above 20 µM.
In turn, `Cc1ncsc1-c1ccc([C@H]2NC(=O)[C@@H]3C[C@@H](O)CN3C(=O)[C@H](C(C)(C)C)NC(=O)CSC[C@H](C(N)=O)NC(=O)[C@@H](CNC(=O)c3cc4c(cc3CS(C)(=O)=O)-c3cn(C)c(=O)c5[nH]cc(c35)CN4c3ncc(F)cc3F)NC(=O)CNC2=O)cc1` [Compound 22] ({CH2CO}-[Tle][Hyp][dPhg(4-(4-Me-thiazol-5-yl))]G[dDap](X14)[dC]-NH2; thioether N-6) had a 50% degradation concentration (DC50) above 20 µM.
Then `Cc1sc2c(c1C)C(c1ccc(Cl)cc1)=N[C@@H](CC(=O)NC[C@H]1NC(=O)CNC(=O)[C@@H](Cc3ccc(Br)s3)NC(=O)[C@@H]3C[C@@H](O)CN3C(=O)[C@H](C(C)(C)C)NC(=O)CSC[C@H](C(N)=O)NC1=O)c1nnc(C)n1-2` [Compound 23] ({CH2CO}-[Tle][Hyp][X5]G[dDap](JQ1acid)[dC]-NH2; thioether N-6), with below 1 µM.
Then `COc1ccc(C[C@@H]2NC(=O)[C@@H]3C[C@@H](O)CN3C(=O)[C@H](C(C)(C)C)NC(=O)CSC[C@H](C(N)=O)NC(=O)[C@@H](CNC(=O)C[C@@H]3N=C(c4ccc(Cl)cc4)c4c(sc(C)c4C)-n4c(C)nnc43)NC(=O)CNC2=O)cc1` [Compound 24] ({CH2CO}-[Tle][Hyp]Y(Me)G[dDap](JQ1acid)[dC]-NH2; thioether N-6), with above 20 µM.
Then `Cc1ncsc1-c1ccc([C@H]2NC(=O)[C@@H]3C[C@@H](O)CN3C(=O)[C@H](C(C)(C)C)NC(=O)CSC[C@H](C(N)=O)NC(=O)[C@H]3CN(C(=O)C[C@@H]4N=C(c5ccc(Cl)cc5)c5c(sc(C)c5C)-n5c(C)nnc54)CCN3C(=O)CNC2=O)cc1` [Compound 25] ({CH2CO}-[Tle][Hyp][dPhg(4-(4-Me-thiazol-5-yl))]G[X4](JQ1acid)[dC]-NH2; thioether N-6), with below 20 µM; and `Cc1ncsc1-c1ccc([C@H]2NC(=O)[C@@H]3C[C@@H](O)CN3C(=O)[C@H](C(C)(C)C)NC(=O)CSC[C@H](C(N)=O)NC(=O)[C@@H](CNC(=O)C[C@@H]3N=C(c4ccc(Cl)cc4)c4c(sc(C)c4C)-n4c(C)nnc43)NC(=O)[C@@H](C)NC2=O)cc1` [Compound 26] ({CH2CO}-[Tle][Hyp][dPhg(4-(4-Me-thiazol-5-yl))][dA][dDap](JQ1acid)[dC]-NH2; thioether N-6), with below 1 µM.
`Cc1ncsc1-c1ccc([C@H]2NC(=O)[C@@H]3C[C@H](O)CN3C(=O)[C@H](C(C)(C)C)NC(=O)CSC[C@H](C(N)=O)NC(=O)[C@@H](CNC(=O)C[C@@H]3N=C(c4ccc(Cl)cc4)c4c(sc(C)c4C)-n4c(C)nnc43)NC(=O)CNC2=O)cc1` [Compound 27] ({CH2CO}-[Tle][cisHyp][dPhg(4-(4-Me-thiazol-5-yl))]G[dDap](JQ1acid)[dC]-NH2; thioether N-6) came in with a DC50 above 20 µM.
Then `Cc1ncsc1-c1ccc([C@H]2NC(=O)[C@@H]3C[C@@H](O)CN3C(=O)[C@H](C(C)(C)C)NC(=O)CSC[C@@H](C(N)=O)NC(=O)[C@@H](CNC(=O)C[C@@H]3N=C(c4ccc(Cl)cc4)c4c(sc(C)c4C)-n4c(C)nnc43)NC(=O)CNC2=O)cc1` [Compound 28] ({CH2CO}-[Tle][Hyp][dPhg(4-(4-Me-thiazol-5-yl))]G[dDap](JQ1acid)C-NH2; thioether N-6), with above 20 µM; and `Cc1ncsc1-c1ccc([C@H]2NC(=O)[C@@H]3C[C@@H](O)CN3C(=O)[C@H](C(C)(C)C)NC(=O)CSC[C@H](C(N)=O)NC(=O)[C@@H](CN(C)C(=O)C[C@@H]3N=C(c4ccc(Cl)cc4)c4c(sc(C)c4C)-n4c(C)nnc43)NC(=O)CNC2=O)cc1` [Compound 29] ({CH2CO}-[Tle][Hyp][dPhg(4-(4-Me-thiazol-5-yl))]G[dDap(Me)](JQ1acid)[dC]-NH2; thioether N-6), with below 20 µM.
Take `Cc1ncsc1-c1ccc([C@@H]2NC(=O)[C@@H]3C[C@@H](O)CN3C(=O)[C@H](C(C)(C)C)NC(=O)CSC[C@H](C(N)=O)NC(=O)[C@@H](CNC(=O)C[C@@H]3N=C(c4ccc(Cl)cc4)c4c(sc(C)c4C)-n4c(C)nnc43)NC(=O)[C@@H](C)NC2=O)cc1` [Compound 31] ({CH2CO}-[Tle][Hyp][Phg(4-(4-Me-thiazol-5-yl))][dA][dDap](JQ1acid)[dC]-NH2; thioether N-6): the DC50 was above 20 µM.
In the case of `Cc1ncsc1-c1ccc([C@H]2NC(=O)[C@@H]3C[C@@H](O)CN3C(=O)[C@H](C(C)(C)C)NC(=O)CCOCCNC(=O)[C@@H](CNC(=O)C[C@@H]3N=C(c4ccc(Cl)cc4)c4c(sc(C)c4C)-n4c(C)nnc43)NC(=O)CNC2=O)cc1` [Compound 32] (cyclo(G[dDap](JQ1acid)[PEG1][Tle][Hyp][dPhg(4-(4-Me-thiazol-5-yl))])), the DC50 is above 20 µM.
The compound `Cc1ncsc1-c1ccc([C@H]2NC(=O)[C@@H]3C[C@@H](O)CN3C(=O)[C@H](C(C)(C)C)NC(=O)CNC(=O)[C@H](C)NC(=O)[C@@H](CNC(=O)C[C@@H]3N=C(c4ccc(Cl)cc4)c4c(sc(C)c4C)-n4c(C)nnc43)NC(=O)CNC2=O)cc1` [Compound 33] (cyclo(AG[Tle][Hyp][dPhg(4-(4-Me-thiazol-5-yl))]G[dDap](JQ1acid))) showed a DC50 below 1 µM.
Compound `Cc1ncsc1-c1ccc([C@@H]2NC(=O)[C@@H]3C[C@@H](O)CN3C(=O)[C@H](C(C)(C)C)NC(=O)COCCNC(=O)[C@@H](CNC(=O)C[C@@H]3N=C(c4ccc(Cl)cc4)c4c(sc(C)c4C)-n4c(C)nnc43)NC(=O)[C@H](C)NC2=O)cc1` [Compound 35] (cyclo(A[dDap](JQ1acid)[AEA][Tle][Hyp][Phg(4-(4-Me-thiazol-5-yl))])) gave a DC50 above 20 µM.
The result for `Cc1ncsc1-c1ccc([C@H]2NC(=O)[C@@H]3C[C@@H](O)CN3C(=O)[C@H](C(C)(C)C)NC(=O)CNC(=O)C[C@@H](CCCCNC(=O)C[C@@H]3N=C(c4ccc(Cl)cc4)c4c(sc(C)c4C)-n4c(C)nnc43)NC(=O)CNC2=O)cc1` [Compound 36] (cyclo(G[Tle][Hyp][dPhg(4-(4-Me-thiazol-5-yl))]G[d(β3hK)](JQ1acid))) reads above 20 µM.

These data come from US12187816B2, “Macrocyclic compounds and methods of use thereof” (Genentech, Inc., priority 2020, dated 2025).
